Data from publication PMC12632398 (bioRxiv, 2025).
Non-standard residues stand in square brackets, D forms with d. No end group written: not given here. Dap = NC[C@H](N)C(=O)O

How the values were obtained:
[1] = system: MCF-7 breast cancer cells; assay: Cell viability assay for MCF-7, CellTiter Glo 2.0; type: cell-based; conditions: MCF-7 cells, 48 h; positive control compared with MP23
HEK293 cells = assay: Cell viability, CellTiter Glo 2.0, HEK293; type: cell-based; conditions: 100 μM, 12 hours, CellTiter Glo 2.0, three independent experiments
HaloTag protein in cells = assay: Time-resolved CAPA; type: cell-based; conditions: 5μM MP1 and 1.62μM JQ1; reproduced in two independent experiments
[2] = system: Cells that express the HaloTag protein; conditions: CAPA; ratio of CP50 to that of JQ-1-Ct

| Compound | potency relative to MP23, MCF-7 viability [1] | effect on the viability of HEK293 cells (HEK293 cells) | kinetics of HaloTag protein alkylation, time-resolved CAPA (HaloTag protein in cells) | fold higher (poorer) CP50 than JQ-1-Ct [2] |
| --- | --- | --- | --- | --- |
| CC(C)[C@@H](CS(=O)(=O)C(C)C)N1C(=O)[C@@](C)(CC(=O)O)C[C@H](c2cccc(Cl)c2)[C@H]1c1ccc(Cl)cc1 [Navtemadlin] | about ten-fold more potent | – | – | – |
| [Dap]AWFK-NH2 (also: sidechain bridge or staple (positions not given here)) [MP1-Ct] | – | no effect | relatively rapid | 3.4 fold |
